Earlier results in patent publication US20040072764A1, “Composition, in particular cosmetic, containing 7-hydroxy dhea and/or 7-keto dhea and at least an isoflavonoid” (priority 2000, published 2004).

Legend:
fibroblasts = settings: cited from WO 98/40074
human keratinocytes = settings: cited from WO 98/40074
[1] = cited from WO 98/40074
skin = settings: on rats; cited from WO 00/28996

C[C@]12CC[C@H](O)CC1=C[C@@H](O)[C@@H]1[C@@H]2CC[C@]2(C)C(=O)CC[C@@H]12 [7α-hydroxy-DHEA]
proliferation of the fibroblasts (fibroblasts): increase | viability of the human keratinocytes (human keratinocytes): increase | anti-free radical effects [1]: had anti-free radical effects | collagen content of the skin (skin): increased | elastin content of the skin (skin): increased | thickness of the dermis (skin): increased
